{"source": "PubChem BioAssay AID330", "about": "(DTP/NCI, 2004)", "tested_on": "P388 leukemia ip, CD2F1 mice, survival T/C", "assay": "NCI In Vivo Anticancer Drug Screen. Data for tumor model P388 Leukemia (intraperitoneal) in CD2F1 (CDF1) mice", "details": "endpoint: median survival time, higher = longer survival", "how_it_was_run": "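Mice carrying the transplanted tumor received test compound or vehicle. Survival was recorded in each group, and the value is the treated-group measurement divided by that of the vehicle-treated control group.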", "key": {"[1]": {"details": "dose: 50.0 mg/kg/injection, schedule: Q01DX005 (ip), vehicle: saline with Tween-80"}, "[2]": {"details": "dose: 100.0 mg/kg/injection, schedule: Q01DX005 (ip), vehicle: saline with Tween-80"}, "[3]": {"details": "dose: 200.0 mg/kg/injection, schedule: Q01DX005 (ip), vehicle: saline with Tween-80"}}, "note": "Where “and” joins values, the source holds several entries; their conditions need not be identical. Equal entries are not always repeated. Toxic doses and inconclusive results are not listed.", "data": [{"smiles": "CCOC(=O)C1(C(O)(C2CC2)C2(C(=O)OCC)CC2)CC1", "values": [{"measurement": "T/C", "setting": "[1]", "result": "100 % of control"}, {"measurement": "T/C", "setting": "[2]", "result": "102 % of control"}, {"measurement": "T/C", "setting": "[3]", "result": "100 % of control"}]}, {"smiles": "CC(C)=CCCC(C)=C(C#N)C#N", "values": [{"measurement": "T/C", "setting": "dose: 100.0 mg/kg/injection, schedule: Q04DX003 (ip), vehicle: saline with Tween-80", "result": "100 % of control"}]}, {"smiles": "C/C(=N\\N=C(N)N)c1ccc2c(c1)Cc1ccccc1-2", "values": [{"measurement": "T/C", "setting": "dose: 25.0 mg/kg/injection, schedule: Q04DX002 (ip), vehicle: saline with Tween-80", "result": "101 % of control"}, {"measurement": "T/C", "setting": "dose: 50.0 mg/kg/injection, schedule: Q04DX002 (ip), vehicle: saline with Tween-80", "result": "103 % of control"}]}, {"smiles": "O=C1c2c(O)cccc2C(C2OC(CO)C(O)C(O)C2O)c2cc(CO)cc(O)c21", "note": "(configuration not stated)", "values": [{"measurement": "T/C", "setting": "dose: 25.0 mg/kg/injection, schedule: Q01DX005 (ip), vehicle: Klucel (hydroxypropylcellulose) (HPC)", "result": "101 % of control"}, {"measurement": "T/C", "setting": "dose: 50.0 mg/kg/injection, schedule: Q01DX001 (ip), vehicle: water", "result": "104 % of control"}, {"measurement": "T/C", "setting": "dose: 50.0 mg/kg/injection, schedule: Q01DX005 (ip), vehicle: Klucel (hydroxypropylcellulose) (HPC)", "result": "104 % of control and 107 % of control"}, {"measurement": "T/C", "setting": "dose: 100.0 mg/kg/injection, schedule: Q01DX001 (ip), vehicle: water", "result": "104 % of control"}, {"measurement": "T/C", "setting": "dose: 100.0 mg/kg/injection, schedule: Q01DX005 (ip), vehicle: Klucel (hydroxypropylcellulose) (HPC)", "result": "117 % of control and 110 % of control"}, {"measurement": "T/C", "setting": "dose: 200.0 mg/kg/injection, schedule: Q01DX001 (ip), vehicle: water", "result": "104 % of control"}]}, {"smiles": "COC(=O)C1(C)CCCC1=O", "note": "(configuration not stated)", "values": [{"measurement": "T/C", "setting": "dose: 50.0 mg/kg/injection, schedule: Q01DX009 (ip), vehicle: other", "result": "96 % of control"}, {"measurement": "T/C", "setting": "dose: 100.0 mg/kg/injection, schedule: Q01DX009 (ip), vehicle: other", "result": "95 % of control"}, {"measurement": "T/C", "setting": "dose: 200.0 mg/kg/injection, schedule: Q01DX009 (ip), vehicle: other", "result": "99 % of control"}]}, {"smiles": "CC1CNCC(C)N1Cc1ccccc1", "note": "(configuration not stated)", "values": [{"measurement": "T/C", "setting": "dose: 50.0 mg/kg/injection, schedule: Q01DX005 (ip), vehicle: saline", "result": "108 % of control"}, {"measurement": "T/C", "setting": "dose: 100.0 mg/kg/injection, schedule: Q01DX005 (ip), vehicle: saline", "result": "99 % of control"}]}, {"smiles": "Cc1ccc(NC(=O)N(CCCl)N=O)cc1NC(=O)N(CCCl)N=O", "values": [{"measurement": "T/C", "setting": "dose: 0.1 mg/kg/injection, schedule: Q01DX009 (ip), vehicle: other", "result": "120 % of control"}, {"measurement": "T/C", "setting": "dose: 0.1 mg/kg/injection, schedule: Q01DX009 (ip), vehicle: saline + alcohol", "result": "116 % of control"}, {"measurement": "T/C", "setting": "dose: 0.25 mg/kg/injection, schedule: Q04DX003 (ip), vehicle: other", "result": "113 % of control"}, {"measurement": "T/C", "setting": "dose: 0.5 mg/kg/injection, schedule: Q04DX003 (ip), vehicle: other", "result": "118 % of control"}, {"measurement": "T/C", "setting": "dose: 0.75 mg/kg/injection, schedule: Q01DX009 (ip), vehicle: other", "result": "161 % of control"}, {"measurement": "T/C", "setting": "dose: 1.0 mg/kg/injection, schedule: Q01DX009 (ip), vehicle: other", "result": "159 % of control"}, {"measurement": "T/C", "setting": "dose: 1.0 mg/kg/injection, schedule: Q04DX003 (ip), vehicle: other", "result": "113 % of control"}, {"measurement": "T/C", "setting": "dose: 1.32 mg/kg/injection, schedule: Q01DX009 (ip), vehicle: saline with Tween-80", "result": "154 % of control"}, {"measurement": "T/C", "setting": "dose: 1.5 mg/kg/injection, schedule: Q01DX009 (ip), vehicle: other", "result": "175 % of control"}, {"measurement": "T/C", "setting": "dose: 2.0 mg/kg/injection, schedule: Q01DX009 (ip), vehicle: saline with Tween-80", "result": "181 % of control"}, {"measurement": "T/C", "setting": "dose: 2.0 mg/kg/injection, schedule: Q04DX003 (ip), vehicle: other", "result": "154 % of control"}, {"measurement": "T/C", "setting": "dose: 3.0 mg/kg/injection, schedule: Q01DX009 (ip), vehicle: other", "result": "221 % of control"}, {"measurement": "T/C", "setting": "dose: 3.0 mg/kg/injection, schedule: Q01DX009 (ip), vehicle: saline with Tween-80", "result": "155 % of control and 209 % of control"}, {"measurement": "T/C", "setting": "dose: 3.13 mg/kg/injection, schedule: Q01DX009 (ip), vehicle: other", "result": "177 % of control"}, {"measurement": "T/C", "setting": "dose: 4.5 mg/kg/injection, schedule: Q01DX009 (ip), vehicle: saline with Tween-80", "result": "245 % of control"}, {"measurement": "T/C", "setting": "dose: 6.25 mg/kg/injection, schedule: Q01DX009 (ip), vehicle: other", "result": "209 % of control"}, {"measurement": "T/C", "setting": "dose: 12.5 mg/kg/injection, schedule: Q01DX009 (ip), vehicle: other", "result": "222 % of control"}]}, {"smiles": "CN1CC(=O)[O][Sn]([CH3])([CH3])[O]C(=O)C1", "values": [{"measurement": "T/C", "setting": "dose: 7.5 mg/kg/injection, schedule: Q01DX005 (ip), vehicle: Klucel (hydroxypropylcellulose) (HPC)", "result": "119 % of control"}, {"measurement": "T/C", "setting": "dose: 15.0 mg/kg/injection, schedule: Q01DX005 (ip), vehicle: Klucel (hydroxypropylcellulose) (HPC)", "result": "122 % of control"}, {"measurement": "T/C", "setting": "dose: 15.0 mg/kg/injection, schedule: Q01DX005 (ip), vehicle: saline with Tween-80", "result": "101 % of control"}, {"measurement": "T/C", "setting": "dose: 30.0 mg/kg/injection, schedule: Q01DX005 (ip), vehicle: Klucel (hydroxypropylcellulose) (HPC)", "result": "122 % of control"}, {"measurement": "T/C", "setting": "dose: 30.0 mg/kg/injection, schedule: Q01DX005 (ip), vehicle: saline with Tween-80", "result": "116 % of control"}]}, {"smiles": "CCC(Oc1c2ccoc2c(OC)c2oc(=O)cc(O)c12)C(=O)O", "note": "(configuration not stated)", "values": [{"measurement": "T/C", "setting": "[1]", "result": "108 % of control"}, {"measurement": "T/C", "setting": "[2]", "result": "95 % of control"}, {"measurement": "T/C", "setting": "[3]", "result": "100 % of control"}]}]}
